The source of these data is article PMC10296281 (2023).

What all share (assay): bio-layer interferometry, 1:1 local fit
In general terms: In BLI a coated tip is dipped into the sample, and binding shifts an interference pattern.

Test [1] relates to Sequence 2 (6 to 80) (DNA, aptamer) CACAGAGGTCAGATGACTTCAGTGAGTTGTCCCACGGTCGGCGAGTCGGTGGTAGCCTATGCGTGCTACCGTGAA
The following applies: 100 mM NaCl, 5 mM KCl, 2 mM MgCl2, 1 mM CaCl2; 20 mM Tris-HCl, 0.02 Tween 20, pH 7.6; R2 0.973.

The test system of test [2] is Sequence 11 (41 to 80) (DNA, aptamer) GGTCGGCGAGTCGGTGGTAGCCTATGCGTGCTACCGTGAA
The following applies: 100 mM NaCl, 5 mM KCl, 2 mM MgCl2, 1 mM CaCl2; 20 mM Tris-HCl, 0.02 Tween 20, pH 7.6; R2 0.757.

In test [3] the test system is Sequence 5 (21 to 80) (DNA, aptamer) ACTTCAGTGAGTTGTCCCACGGTCGGCGAGTCGGTGGTAGCCTATGCGTGCTACCGTGAA
Conditions: 100 mM NaCl, 5 mM KCl, 2 mM MgCl2, 1 mM CaCl2; 20 mM Tris-HCl, 0.02 Tween 20, pH 7.6; R2 0.924.

Test [4] deals with Sequence 4 (6 to 75) (DNA, aptamer) CACAGAGGTCAGATGACTTCAGTGAGTTGTCCCACGGTCGGCGAGTCGGTGGTAGCCTATGCGTGCTACC
The following applies: 100 mM NaCl, 5 mM KCl, 2 mM MgCl2, 1 mM CaCl2; 20 mM Tris-HCl, 0.02 Tween 20, pH 7.6; R2 0.945.

The test system of test [5] is Sequence 3 (1 to 75) (DNA, aptamer) AGCAGCACAGAGGTCAGATGACTTCAGTGAGTTGTCCCACGGTCGGCGAGTCGGTGGTAGCCTATGCGTGCTACC
The following applies: 100 mM NaCl, 5 mM KCl, 2 mM MgCl2, 1 mM CaCl2; 20 mM Tris-HCl, 0.02 Tween 20, pH 7.6; R2 0.946.

The test system of test [6] is Sequence 9 (1 to 50) (DNA, aptamer) AGCAGCACAGAGGTCAGATGACTTCAGTGAGTTGTCCCACGGTCGGCGAG
The following applies: 100 mM NaCl, 5 mM KCl, 2 mM MgCl2, 1 mM CaCl2; 20 mM Tris-HCl, 0.02 Tween 20, pH 7.6; R2 0.914.

Test [7] has as its system Sequence 10 (31 to 50) (DNA, aptamer) GTTGTCCCACGGTCGGCGAG
The following applies: 100 mM NaCl, 5 mM KCl, 2 mM MgCl2, 1 mM CaCl2; 20 mM Tris-HCl, 0.02 Tween 20, pH 7.6; R2 0.699 (poor fit).

Test [8] has as its system Sequence 1 (original aptamer, 1 to 80) (DNA, aptamer) AGCAGCACAGAGGTCAGATGACTTCAGTGAGTTGTCCCACGGTCGGCGAGTCGGTGGTAGCCTATGCGTGCTACCGTGAA
The following applies: 100 mM NaCl, 5 mM KCl, 2 mM MgCl2, 1 mM CaCl2; 20 mM Tris-HCl, 0.02 Tween 20, pH 7.6; R2 0.993.

In test [9] the test system is Sequence 6 (1 to 60) (DNA, aptamer) AGCAGCACAGAGGTCAGATGACTTCAGTGAGTTGTCCCACGGTCGGCGAGTCGGTGGTAG
Conditions: 100 mM NaCl, 5 mM KCl, 2 mM MgCl2, 1 mM CaCl2; 20 mM Tris-HCl, 0.02 Tween 20, pH 7.6; R2 0.905.

Test [10] concerns Sequence 8 (31 to 80) (DNA, aptamer) GTTGTCCCACGGTCGGCGAGTCGGTGGTAGCCTATGCGTGCTACCGTGAA
The following applies: 100 mM NaCl, 5 mM KCl, 2 mM MgCl2, 1 mM CaCl2; 20 mM Tris-HCl, 0.02 Tween 20, pH 7.6; R2 0.853.

Test [11] deals with Sequence 7 (21 to 60) (DNA, aptamer) ACTTCAGTGAGTTGTCCCACGGTCGGCGAGTCGGTGGTAG
Conditions: 100 mM NaCl, 5 mM KCl, 2 mM MgCl2, 1 mM CaCl2; 20 mM Tris-HCl, 0.02 Tween 20, pH 7.6; R2 0.882.

Broadly, the Kd is the free concentration of one partner at which half of the binding sites on the other are occupied at equilibrium, for simple one-to-one binding. A higher Kd goes with a looser complex.

Consider `O=C(N[C@H](CO)[C@H](O)c1ccc([N+](=O)[O-])cc1)C(Cl)Cl`, for which the Kd in test [1] was determined as 0.877 µM; in [2], 0.426 µM; in test [3], 1.712 µM; in test [4] it was 0.661 µM; in [5] it was 0.645 µM; in [6], 0.092 µM. Further, the Kd in test [7] was found to be 3.109 µM; in test [8], 0.704 µM; in test [9] it was 4.014 µM; in test [10], 0.153 µM; in test [11], 0.370 µM.
